Measurements: patent publication US20250282798A1, “HETEROARYL-SUBSTITUTED BICYCLIC COMPOUND AND USE THEREOF” (Medshine Discovery Inc., priority 2022, published 2025)

Tests used:
[1] = biological target: T1, human HPK1 (Homo sapiens (Human), UniProt Q92918); assay: 33P isotope-labeled kinase activity assay (Method 1); type: biochemical; conditions: HPK1 enzyme concentration 8.1 nM; ATP concentration 15 μM
Experimental: Method 1: The IC50 value was assayed by ^33P isotope-labeled kinase activity assay to evaluate the inhibitory ability of a test compound on human HPK1.
(§1) Enzyme buffer conditions: 50 mM Hepes (pH 7.5), 10 mM MgCl2, 1 mM EGTA, 0.01% Brij35, 2 mM DTT.
(§2) Assay steps: A compound was diluted 3-fold with DMSO in a dilution plate, with a final initial concentration of […] and 10 concentration gradient points. The compound was diluted 50-fold into the kinase reaction buffer, and the mixture was shaken on a shaker for 20 minutes. The kinase was prepared with the enzyme reaction buffer. 2 μL of kinase was added to each well of a reaction plate. 1 μL of the diluted compound in the buffer was added to each well. The plate was sealed with a sealing film, centrifuged at 1000 g for 30 seconds, and placed at room temperature for 10 minutes. The mixed solution of ATP/MBP was prepared with the enzyme reaction buffer. 2 μL of the mixed solution of ATP/MBP was added to the reaction plate. The plate was sealed with a sealing film, and centrifuged at 1000 g for 30 seconds. The mixture in the plate was reacted at room temperature for 60 minutes. […] The plate was incubated at 25° C. for 40 min. […] The plate was incubated at 25° C. for 40 min. The RLU (relative luminescence unit) signal was read with a BMG microplate reader, and the signal intensity was used to characterize the activity of the kinase.

[2] = biological target: T1, human HPK1; assay: Kinase activity assay using ADP-Glo method (Method 2); type: biochemical; conditions: HPK1 enzyme concentration 0.1 nM; ATP concentration 10 μM
Experimental: Method 2: The IC50 value was assayed by the kinase activity assay using ADP-Glo method to evaluate the inhibitory ability of a test compound on human HPK1.
Enzyme buffer conditions: 50 mM Hepes (pH 7.5), 10 mM MgCl2, 1 mM EGTA, 0.01% Brij35, 2 mM DTT. […]
as §2, with “4-fold” for “3-fold”
(§3) The kinase activity data were expressed as the comparison of the kinase activity of a group with a test compound and the kinase activity of the blank group (containing only DMSO). The IC50 value was obtained by curve fitting using Prism software (GraphPad7.0).

[3] = biological target: human GLK (Homo sapiens (Human), UniProt Q8IVH8); assay: Kinase activity assay using ADP-Glo method, GLK; type: biochemical; conditions: GLK enzyme concentration 8 nM; ATP 20 μM
Experimental: The IC50 value was assayed by the kinase activity assay using ADP-Glo method to evaluate the inhibitory ability of a test compound on human GLK.
as §1
Preparation of the mixture of kinase and substrate: the concentration of GLK in the reaction solution was 8 nM, the concentration of ATP was […], and the concentration of MBP was 0.05 mg/mL.
Assay steps: A compound was diluted 4-fold with DMSO in a dilution plate, with a final initial concentration of […] and 10 concentration gradient points. The compound was diluted 50-fold into the kinase reaction buffer, and the mixture was shaken on a shaker for 20 minutes. The kinase was prepared with the enzyme reaction buffer. 2 μL of kinase was added to each well of a reaction plate. 1 μL of the diluted compound in the buffer was added to each well. The plate was sealed with a sealing film, centrifuged at 1000 g for 30 seconds, and placed at room temperature for 10 minutes. The mixed solution of ATP/MBP was prepared with the enzyme reaction buffer. 2 μL of the mixed solution of ATP/MBP was added to the reaction plate. The plate was sealed with a sealing film, and centrifuged at 1000 g for 30 seconds. The mixture in the plate was reacted at room temperature for 60 minutes. 4 μL of ADP-Glo was transferred to the 384 reaction plate, and centrifuged at 1000 rpm/min for 1 min. The plate was incubated at 25° C. for 40 min. 8 μL of detection solution was transferred to the 384 reaction plate, and centrifuged at 1000 rpm/min for 1 min. The plate was incubated at 25° C. for 40 min. The RLU (relative luminescence unit) signal was read with a BMG microplate reader, and the signal intensity was used to characterize the activity of the kinase.
as §3

[4] = In vitro metabolic stability in human liver microsomes; type: in vitro ADME; conditions: 1 μM compound, 0.5 mg/mL protein
Experimental: The in vitro metabolic stability of the compounds of the present disclosure in human was investigated by the metabolic stability in human liver microsomes.
Assay conditions: 1 μM of a compound was incubated with human liver microsomes supplemented with NADPH regeneration system at 37° C. for a certain period of time up to 60 minutes. The concentration of the compound in the resulting sample was assayed by LC-MS/MS method.
Assay procedure: 96-well incubation plates were named T0, T5, T15, T30, T45, T60, Blank60 and NCF60, respectively. The reaction time corresponding to the incubation plates were 0, 5, 15, 30, 45 and 60 minutes, respectively. No test sample or control compound was added to the Blank60 plate, and samples were taken after 60 minutes of incubation. Potassium phosphate buffer was used instead of NADPH regeneration system solution in the NCF60 plate, and the plate was incubated for 60 minutes. All the samples of the time points were from a single well.
5 μL of a test sample or control sample working solution and 100 μL of microsome working solution (the concentration of liver microsome protein was 0.5 mg/mL) were added to the T0, T5, T15, T30, T45, T60 and NCF60 plates, respectively. Only microsome working solution was added to the Blank60 plate. Then, the Blank60, T5, T15, T30, T45 and T60 plates, except TO and NCF60 plates, were placed in a 37° C. water bath, and preincubated for about 10 minutes.
180 μL of stop solution (the stop solution was a solution of tolbutamide (100 ng/mL) in acetonitrile and methanol (95:5, V/V)) was firstly added to the sample of TO plate, and then the NADPH regeneration system working solution was added.
50 μL of potassium phosphate buffer was added to each well of the NCF60 plate, and the plate was incubated for 60 minutes.
After the pre-incubation of Blank60, T5, T15, T30, T45 and T60 plates, 44 μL of NADPH regeneration system working solution was added to each sample well to initiate the reaction. Therefore, for the sample wells containing a test sample or control sample working solution, the final concentration of the reaction was […], the concentration of liver microsomes was 0.5 mg/mL, and the final concentrations of DMSO and acetonitrile in the reaction system were 0.01% (v/v) and 0.99% (v/v), respectively.
After being incubated for an appropriate time (e.g., 5, 15, 30, 45, and 60 min), 180 μL of stop solution was added to each well of the test sample and control sample of Blank60, T5, T15, T30, T45, T60, and NCF60 plates, respectively, to terminate the reaction.
All sample plates were shaken and centrifuged for 10 min. 80 μL of the supernatant of a test sample was taken and diluted into 240 μL of a mixture of acetonitrile and water (1:9, V/V) containing 0.1% formic acid for LC-MS/MS analysis.
By calculating the corresponding time point and the remaining percentage of a compound, the half-life T1/2 and clearance rate CLint(liver) of the compound in human liver microsome metabolism were obtained.

[5] = Pharmacokinetic evaluation in mice; type: in vivo, female Balb/c mice
Experimental: Assay procedure: 10% DMSO+20% PEG400+70% (30% SBE-P3-CD aqueous solution) (the trifluoroacetate of compound 4, the trifluoroacetate of compound 9) or 10% SBE-β-CD aqueous solution (the trifluoroacetate of compound 24-3) was injected into female Balb/c mice (overnight fasting, 7-9 weeks old) via the tail vein. Female Balb/c mice (overnight fasting, 7-9 weeks old) were gavaged with 10% DMSO+20% PEG400+70% (30% SBE-β-CD aqueous solution (the trifluoroacetate of compound 4, the trifluoroacetate of compound 9) or 10% SBE-P3-CD aqueous solution (the trifluoroacetate of compound 24-3) at dosages shown in Table 7. About 30 μL of blood of the two groups of animals was collected from the jugular vein at 0.0833, 0.25, 0.5, 1.0, 2.0, 4.0, 8.0, and 24 hours after the administration, and from the tail vein at 0.25, 0.5, 1.0, 2.0, 4.0, 8.0, and 24 hours after the administration, respectively, and placed in an anticoagulant tube with EDTA-K2 added. The tube was centrifuged to separate the plasma. The plasma concentration was assayed by LC-MS/MS. The relevant pharmacokinetic parameters were calculated with WinNonlin™ Version 6.3 (Pharsight, Mountain View, CA) pharmacokinetic software using the non-compartmental linear logarithmic trapezoidal method.

[6] = system: MDR1 (P-glycoprotein); assay: Permeability evaluation in MDR1-MDCK II cells; type: in vitro ADME; conditions: dog
Experimental: Cell line: The MDR1-MDCK II cell line authorized by Piet Borst's laboratory at the Netherlands Cancer Research Institute was used in this assay as an in vitro model for the permeability evaluation assay. The cells were inoculated in a Transwell-96 well cell plate at a density of 2.3×10^5 cells/cm^2, and cultured in a carbon dioxide incubator for 4-7 days before use in the transport assay.
The administration concentration of the test sample was 2.00 μM.
Test direction and number of parallel samples: bidirectional A-B and B-A, 2 parallels
Transport buffer (TB): HBSS solution containing 10 mM HEPES (pH 7.40±0.05)
Incubation conditions: 37±1° C., 5% CO2, incubated for 150 minutes
Control compounds: Nadolol and metoprolol were used as low-permeability and high-permeability control compounds. Digoxin was used as a substrate of P-glycoprotein. The administration concentration of nadolol and metoprolol was 2.00 μM, and the administration concentration of digoxin was 10.0 μM.
After the transport assay, the integrity of the MDR1-MDCK II cell layer was assayed by the Lucifer Yellow Rejection Assay. The remaining solution in the apical and basolateral wells was removed. 75 μL of TB containing 100 μM Lucifer Yellow was added to the apical well, and 250 μL of TB was added to the basolateral well. The cell plate was incubated in a cell culture incubator at 37±1° C., 5% CO2 and saturated humidity for 30 minutes. Then, 20 μL of sample was taken from the apical well and mixed with 60 μL of TB, and 80 μL of sample was taken from the basolateral well. The relative fluorescence unit (RFU) was measured at 425/528 nm (excitation/emission) using a microplate reader.
In this assay, the sample analysis of the test samples and control compounds of nadolol, metoprolol, and digoxin was performed by liquid chromatography-tandem mass spectrometry (LC-MS/MS). The retention time of the analytes and internal standards, chromatogram acquisition, and chromatogram integration were processed using the software Analyst (Sciex, Framingham, MA, USA). The sample analysis was semi-quantitatively determined using the peak area of analyte and the peak area of internal standard.
VR is the volume of the receiver end solution (0.075 mL for side A, and 0.25 mL for side B); Area is the relative surface area of the cell monolayer (0.0804 cm2); Time is the incubation time (9000 s); C0 is the peak area ratio of the compound at the administration end; VD is the volume of the administration end (0.075 mL for side A, and 0.25 mL for side B); CD and CR are the peak area ratios of the compound at the administration end and the receiver end, respectively.

[7] = female, Balb/c, mouse, plasma, IV 2 mg/kg
[8] = female, Balb/c, mouse, plasma, PO 75 mg/kg

human GLK, sequence (Q8IVH8 whole entry): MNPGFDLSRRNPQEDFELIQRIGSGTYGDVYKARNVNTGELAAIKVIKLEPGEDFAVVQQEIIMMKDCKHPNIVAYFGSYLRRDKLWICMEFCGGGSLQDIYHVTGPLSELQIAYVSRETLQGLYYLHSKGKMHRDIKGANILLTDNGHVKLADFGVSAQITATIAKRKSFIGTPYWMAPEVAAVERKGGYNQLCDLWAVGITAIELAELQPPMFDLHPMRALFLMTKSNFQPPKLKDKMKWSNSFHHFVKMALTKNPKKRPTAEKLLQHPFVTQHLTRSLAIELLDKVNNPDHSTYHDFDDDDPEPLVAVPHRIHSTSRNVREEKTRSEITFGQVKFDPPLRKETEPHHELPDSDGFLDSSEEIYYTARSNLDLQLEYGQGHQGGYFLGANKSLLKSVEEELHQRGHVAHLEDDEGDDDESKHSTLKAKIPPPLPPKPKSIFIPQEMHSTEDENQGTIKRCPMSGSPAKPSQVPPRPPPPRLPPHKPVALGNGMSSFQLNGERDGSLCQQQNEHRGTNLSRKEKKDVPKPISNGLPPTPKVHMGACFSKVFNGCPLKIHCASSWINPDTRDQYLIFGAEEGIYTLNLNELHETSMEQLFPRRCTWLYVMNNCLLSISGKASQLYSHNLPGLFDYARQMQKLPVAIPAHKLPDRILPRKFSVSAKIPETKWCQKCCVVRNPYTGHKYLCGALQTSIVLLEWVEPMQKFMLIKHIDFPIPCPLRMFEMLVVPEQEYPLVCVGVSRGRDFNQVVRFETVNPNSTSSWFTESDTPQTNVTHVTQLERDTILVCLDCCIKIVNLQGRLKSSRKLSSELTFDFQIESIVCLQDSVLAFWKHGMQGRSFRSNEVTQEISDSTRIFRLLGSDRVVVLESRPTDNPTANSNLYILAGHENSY
T1 sequence (Q92918 whole entry): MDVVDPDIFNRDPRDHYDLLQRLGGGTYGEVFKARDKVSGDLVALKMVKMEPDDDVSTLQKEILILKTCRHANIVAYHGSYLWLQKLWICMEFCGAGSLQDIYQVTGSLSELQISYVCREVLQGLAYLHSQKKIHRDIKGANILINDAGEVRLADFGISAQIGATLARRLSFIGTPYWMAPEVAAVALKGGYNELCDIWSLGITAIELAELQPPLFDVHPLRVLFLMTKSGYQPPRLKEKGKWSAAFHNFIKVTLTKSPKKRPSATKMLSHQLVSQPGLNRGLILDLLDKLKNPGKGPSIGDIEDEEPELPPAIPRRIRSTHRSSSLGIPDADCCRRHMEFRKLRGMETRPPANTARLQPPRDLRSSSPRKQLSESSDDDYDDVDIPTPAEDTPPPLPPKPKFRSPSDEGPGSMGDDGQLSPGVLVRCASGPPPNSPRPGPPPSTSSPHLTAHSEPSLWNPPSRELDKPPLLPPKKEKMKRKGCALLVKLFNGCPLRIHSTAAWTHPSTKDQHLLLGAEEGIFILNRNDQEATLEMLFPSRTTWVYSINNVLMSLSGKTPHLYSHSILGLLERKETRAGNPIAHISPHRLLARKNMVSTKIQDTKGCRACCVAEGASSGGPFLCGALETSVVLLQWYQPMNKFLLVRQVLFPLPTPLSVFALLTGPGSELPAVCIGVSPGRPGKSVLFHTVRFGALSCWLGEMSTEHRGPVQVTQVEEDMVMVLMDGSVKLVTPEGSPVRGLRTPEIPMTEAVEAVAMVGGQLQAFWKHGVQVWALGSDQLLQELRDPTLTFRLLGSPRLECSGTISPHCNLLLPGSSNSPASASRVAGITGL

CN(C)Cc1cc(Nc2ncc(-c3cnc4cc(F)ccn34)c3c2C(=O)NC3)ccc1N1CCOCC1 [Compound 2]
IC50 [1]: 18 nM

O=C1NCc2c(-c3cnc4cc(F)ccn34)ccc(Nc3ccc4c(n3)OC[C@H]3COCCN43)c21 [Compound 9]
IC50 [2]: 0.7 nM
IC50 [3]: 115 nM
CLint scaled at 1 μM [4]: 39 mL/min/kg
half-life at 1 μM [4]: 32 min

O=C1NCc2c(-c3cnc4cc(F)ccn34)ccc(Nc3ccc4c(n3)OC[C@H]3COCCN43)c21 [Trifluoroacetate of compound 9]
Tlast ([5]; IV 2 mg/kg): 2 h
Tlast ([5]; PO 75 mg/kg): 8 h
AUC(0-inf) [5, 7]: 1.95 µM·h
AUC(0-t) [5, 7]: 1.93 µM·h
C0 [5, 7]: 6.06 µM
clearance [5, 7]: 36 mL/min/kg
half-life [5, 7]: 18 min
Vd ([5]; female, Balb/c, mouse, plasma, IV 2 mg/kg, read-out: Vdss): 0.8 L/kg
AUC(0-inf) [5, 8]: 108 µM·h
AUC(0-t) [5, 8]: 108 µM·h
Cmax [5, 8]: 39.8 µM
Tmax [5, 8]: 48 min
half-life [5, 8]: 48 min
bioavailability ([5]; female, Balb/c, mouse, plasma, PO 75 mg/kg vs IV 2 mg/kg, calculated using AUC0-last): 148%

CN1Cc2nc(Nc3ccc(-c4cnc5cc(F)ccn45)c4c3C(=O)NC4)ccc2N2CCOCC2C1 (stereo not drawn) [Trifluoroacetate of compound 16]
IC50 [3]: 277 nM

Cn1ccc2c(-c3ncc(Nc4ccc5c(n4)OC[C@H]4COCCN54)c4c3CNC4=O)ccnc21 [Trifluoroacetate of compound 20]
IC50 [3]: 198 nM
CLint scaled at 1 μM [4]: 63 mL/min/kg
half-life at 1 μM [4]: 20 min
Papp A→B at 150 min, 2 μM ([6]; pH 7.4, 2.00 μM, 150 minutes): 4.61 ×10⁻⁶ cm/s
Papp B→A at 150 min, 2 μM ([6]; pH 7.4, 2.00 μM, 150 minutes): 22.5 ×10⁻⁶ cm/s
efflux ratio at 150 min, 2 μM ([6]; pH 7.4, 2.00 μM, 150 minutes): 4.88
Papp at 150 min, 2 μM ([6]; pH 7.4, class by Papp, read-out: Conclusion of the permeability): 1 to 5.5 ×10⁻⁶ cm/s
